Reference: article PMC12718081 (ACS Infectious Diseases, 2025)
“Also recorded” adds a separate entry of the source. Like-named read-outs stand apart in the source and are kept apart here.

Experiments:
[1] = tested on: S. mansoni schistosomula; experiment: Roboworm high-content screening assay on schistosomula (motility and phenotype scores); type: cell-based, Schistosoma mansoni; details: 72 h
Description: All PZQ derivatives were synthesized in the racemic form and evaluated as such. The compounds were initially screened at 10 μM against S. mansoni schistosomula using the Roboworm high-content screening assay , and were declared hits or nonhits based on their effect on parasites’ motility and phenotype scores after 72 h of incubation. As none of the compounds were considered hits at this concentration, we performed a titration from 6.25 to 50 μM (Figure S27).
DMSO was included as a negative control. Compounds were considered hits if both their motility and phenotype scores were lower than −0.35 and −0.15, respectively (region delimited by the dashed lines). In red, PZQ analogues selected for further analysis.
For the collection of schistosomula, B. glabrata snails infected with S. mansoni were shed for 2 h under light at 26 °C. Cercariae were collected, mechanically transformed into schistosomula as previously described.
DMSO (0.625%, v/v) was included as a negative control. Z′ values for the assay were calculated to be 0.542 for phenotype and 0.361 for motility. […]
Auranofin (AUR) was included at 10 µM as positive control. DMSO was included as a negative control. Compounds were considered hits if both their motility and phenotype scores were lower than -0.35 and -0.15, respectively (region delimited by the […]

[2] = tested on: adult schistosomes (male and female worms); experiment: Adult worm ex vivo high-content image-based motility assay; type: cell-based, Schistosoma mansoni
Description: Adult schistosomes’ motility was determined using a high-content assay previously developed by our group, , with images analyzed in CellProfiler software. More details are provided in the Supporting Information.
(§1) Adult worm ex-vivo high-content assay
(§2) “Area” and “False Negative Rate” from the MeasureObjectSizeShape and MeasureObjectOverlap modules, respectively. These measurements were then modeled by a multilevel generalized linear statistical model. The effects of the experimental treatments on […]
(§3) The half-maximal inhibitory
(§4) Windows (GraphPad Software, Boston, MA, USA; www.graphpad.com). […]
with DMSO as a negative control.

[3] = target: Sm.TRPMPZQ (wild-type) (Schistosoma mansoni, UniProt A0A5K4F0X5); experiment: Ca2+ reporter (FLIPR) activation assay, wild-type Sm.TRPMPZQ in HEK293 cells; type: cell-based
Description: The Ca^2+ reporter assay was performed using a Fluorescence Imaging Plate Reader (FLIPR) system, as described in the Supporting Information. […]
as §3, §4
(§5) with DMSO as a negative control. […]
(§6) reader. […] The fluorescence
(§7) Untransfected HEK293 cells were used as a control.
(§8) 10% fetal bovine serum (FBS). […]
(§9) atmosphere containing 5% CO₂. Following incubation, the growth medium was removed and […]
(§10) buffer containing 2.5 mM probenecid in HBSS (with Ca²⁺ and Mg²⁺), 20 mM HEPES, 0.3% BSA (Sigma, A7030), and 0.03% L-ascorbic acid (Sigma). Cells were incubated for 40 minutes at 37 °C and subsequently for 20 minutes at room temperature. […]
prepared in assay buffer without dye and probenecid and dispensed into separate flat-bottom 384-well plates. Calcium flux measurements were performed at room temperature using a […]
(§11) instrument (Molecular Devices). Baseline fluorescence was recorded for 20 seconds, followed by the addition of 5 µL of each drug solution, after which fluorescence was measured continuously for 250 seconds. […]

[4] = target: Eg.TRPMPZQ (Echinococcus granulosus, UniProt W6UVV9); experiment: cell-based; details: HEK293, Ca2+ reporter, mean ± standard deviation; read-out: Bmax, Eg.TRPMPZQ activation
[5] = tested on: Sm.TRPMPZQ L1515A mutant; experiment: Ca2+ reporter activation assay, Sm.TRPMPZQ point mutant L1515A; type: cell-based, Schistosoma mansoni; details: 100 μM
Description: This trend likely indicates a similar binding mode.
The colored cells represent the range of EC50 values for each compound based on their ability to activate the channel.
(§12) The Ca^2+ reporter assay was performed using a Fluorescence Imaging Plate Reader (FLIPR) system, as described in the Supporting Information.
as §1, §2, §3, §4, §5, §6, §7, §8, §9, §10, §11

[6] = tested on: Sm.TRPMPZQ; experiment: Ca2+ reporter assay in antagonist mode (block of PZQ activation of Sm.TRPMPZQ); type: cell-based, Schistosoma mansoni; details: preincubation 1 nM-100 μM for 10 min, data not shown
Description: as §12, §1, §2, §3, §4, §5, §6, §7, §8, §9
buffer containing 2.5 mM probenecid in HBSS (with Ca²⁺ and Mg²⁺), 20 mM HEPES, 0.3% BSA (Sigma, A7030), and 0.03% L-ascorbic acid (Sigma). Cells were incubated for 40 minutes at 37 °C and subsequently for 20 minutes at room temperature. A total of seven PZQ derivatives were tested, using racemic PZQ included as a positive control on each assay plate. Drug dilutions were prepared in assay buffer without dye and probenecid and dispensed into separate flat-bottom 384-well plates. Calcium flux measurements were performed at room temperature using a […]
as §11
schistosomula after 72h of incubation using the Roboworm high-content screening assay. Auranofin (AUR) was included at 10 µM as positive control. DMSO was included as a negative control. Compounds were considered hits if both their motility and phenotype scores were lower than -0.35 and -0.15, respectively (region delimited by the […]
(1 picture or pasted object on this page, not shown here)

[7] = tested on: juvenile schistosomes (21 days p.i.); experiment: XTT juvenile viability assay; type: cell-based, Schistosoma mansoni; details: 48 h
[8] = tested on: Fh.TRPMPZQ; set-up: method as in number not given; details: background statement; ref number not given; cited from earlier work
[9] = tested on: Sm.TRPMMCLZ; set-up: method as in number not given; details: background statement; ref number not given; cited from earlier work
[10] = tested on: S. mansoni; set-up: method as in numbers not given; details: ref numbers not given, cited from earlier work
[11] = tested on: juvenile schistosomes; experiment: Microscopy analysis of juvenile morphology and motility (viability score 0-3); details: 72 h

Sm.TRPMPZQ (wild-type), sequence (A0A5K4F0X5 entry or part of it): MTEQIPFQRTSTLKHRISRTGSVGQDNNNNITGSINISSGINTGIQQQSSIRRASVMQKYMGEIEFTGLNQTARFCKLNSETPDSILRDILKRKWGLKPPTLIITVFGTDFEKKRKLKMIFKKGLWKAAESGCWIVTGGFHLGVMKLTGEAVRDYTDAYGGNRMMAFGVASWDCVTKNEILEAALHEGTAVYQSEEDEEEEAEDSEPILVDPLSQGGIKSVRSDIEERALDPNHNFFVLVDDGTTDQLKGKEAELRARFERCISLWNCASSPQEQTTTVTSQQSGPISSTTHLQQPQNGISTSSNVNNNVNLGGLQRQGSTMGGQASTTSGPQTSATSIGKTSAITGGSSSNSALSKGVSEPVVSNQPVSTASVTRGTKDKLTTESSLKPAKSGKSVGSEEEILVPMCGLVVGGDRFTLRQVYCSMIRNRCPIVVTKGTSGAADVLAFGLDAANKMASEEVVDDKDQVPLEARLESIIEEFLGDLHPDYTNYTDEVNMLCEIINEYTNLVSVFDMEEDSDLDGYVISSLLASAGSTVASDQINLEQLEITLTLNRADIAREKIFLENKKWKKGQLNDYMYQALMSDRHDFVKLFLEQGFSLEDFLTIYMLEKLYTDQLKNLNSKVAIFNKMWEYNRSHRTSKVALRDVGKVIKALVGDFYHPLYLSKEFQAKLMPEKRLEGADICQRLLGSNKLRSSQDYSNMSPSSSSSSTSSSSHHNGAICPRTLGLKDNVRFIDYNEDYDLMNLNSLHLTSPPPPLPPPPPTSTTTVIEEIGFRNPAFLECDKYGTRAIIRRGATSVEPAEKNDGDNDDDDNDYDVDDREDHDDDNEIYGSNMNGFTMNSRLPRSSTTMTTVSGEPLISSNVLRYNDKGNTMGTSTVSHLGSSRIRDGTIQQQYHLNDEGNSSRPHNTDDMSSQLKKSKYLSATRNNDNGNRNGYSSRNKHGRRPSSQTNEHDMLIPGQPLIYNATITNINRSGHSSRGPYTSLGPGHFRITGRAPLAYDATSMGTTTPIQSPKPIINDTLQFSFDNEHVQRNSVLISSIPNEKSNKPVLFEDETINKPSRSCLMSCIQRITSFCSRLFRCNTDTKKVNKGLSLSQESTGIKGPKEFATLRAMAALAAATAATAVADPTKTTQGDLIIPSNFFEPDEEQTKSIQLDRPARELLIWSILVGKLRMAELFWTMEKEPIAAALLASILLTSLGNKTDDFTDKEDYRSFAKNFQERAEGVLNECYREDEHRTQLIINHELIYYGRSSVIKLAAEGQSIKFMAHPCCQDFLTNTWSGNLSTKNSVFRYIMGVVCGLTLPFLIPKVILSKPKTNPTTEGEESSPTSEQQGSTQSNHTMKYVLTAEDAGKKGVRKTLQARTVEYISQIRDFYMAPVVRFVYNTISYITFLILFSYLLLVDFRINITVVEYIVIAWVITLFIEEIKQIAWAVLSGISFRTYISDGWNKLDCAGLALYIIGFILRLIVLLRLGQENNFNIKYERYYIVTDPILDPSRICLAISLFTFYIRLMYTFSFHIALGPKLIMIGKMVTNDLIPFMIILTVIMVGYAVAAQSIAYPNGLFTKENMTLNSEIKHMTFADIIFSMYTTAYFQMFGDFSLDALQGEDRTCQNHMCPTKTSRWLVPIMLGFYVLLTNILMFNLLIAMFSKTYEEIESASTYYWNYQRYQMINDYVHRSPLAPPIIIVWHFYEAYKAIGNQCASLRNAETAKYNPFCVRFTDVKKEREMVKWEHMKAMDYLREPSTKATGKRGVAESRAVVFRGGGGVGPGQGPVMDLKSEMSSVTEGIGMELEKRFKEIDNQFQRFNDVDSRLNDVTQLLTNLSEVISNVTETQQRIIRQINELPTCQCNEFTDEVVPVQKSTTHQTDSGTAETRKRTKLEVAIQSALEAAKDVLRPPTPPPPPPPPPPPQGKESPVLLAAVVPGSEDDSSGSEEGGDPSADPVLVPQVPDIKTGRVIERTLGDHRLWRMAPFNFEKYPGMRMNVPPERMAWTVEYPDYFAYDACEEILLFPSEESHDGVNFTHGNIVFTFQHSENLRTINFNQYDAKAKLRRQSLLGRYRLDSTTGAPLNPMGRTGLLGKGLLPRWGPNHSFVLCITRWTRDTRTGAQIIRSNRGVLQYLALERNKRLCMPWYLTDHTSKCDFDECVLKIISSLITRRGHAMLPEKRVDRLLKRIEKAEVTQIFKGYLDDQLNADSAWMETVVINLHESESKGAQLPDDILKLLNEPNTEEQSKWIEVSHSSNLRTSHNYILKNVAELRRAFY
Eg.TRPMPZQ, sequence (W6UVV9 entry or part of it): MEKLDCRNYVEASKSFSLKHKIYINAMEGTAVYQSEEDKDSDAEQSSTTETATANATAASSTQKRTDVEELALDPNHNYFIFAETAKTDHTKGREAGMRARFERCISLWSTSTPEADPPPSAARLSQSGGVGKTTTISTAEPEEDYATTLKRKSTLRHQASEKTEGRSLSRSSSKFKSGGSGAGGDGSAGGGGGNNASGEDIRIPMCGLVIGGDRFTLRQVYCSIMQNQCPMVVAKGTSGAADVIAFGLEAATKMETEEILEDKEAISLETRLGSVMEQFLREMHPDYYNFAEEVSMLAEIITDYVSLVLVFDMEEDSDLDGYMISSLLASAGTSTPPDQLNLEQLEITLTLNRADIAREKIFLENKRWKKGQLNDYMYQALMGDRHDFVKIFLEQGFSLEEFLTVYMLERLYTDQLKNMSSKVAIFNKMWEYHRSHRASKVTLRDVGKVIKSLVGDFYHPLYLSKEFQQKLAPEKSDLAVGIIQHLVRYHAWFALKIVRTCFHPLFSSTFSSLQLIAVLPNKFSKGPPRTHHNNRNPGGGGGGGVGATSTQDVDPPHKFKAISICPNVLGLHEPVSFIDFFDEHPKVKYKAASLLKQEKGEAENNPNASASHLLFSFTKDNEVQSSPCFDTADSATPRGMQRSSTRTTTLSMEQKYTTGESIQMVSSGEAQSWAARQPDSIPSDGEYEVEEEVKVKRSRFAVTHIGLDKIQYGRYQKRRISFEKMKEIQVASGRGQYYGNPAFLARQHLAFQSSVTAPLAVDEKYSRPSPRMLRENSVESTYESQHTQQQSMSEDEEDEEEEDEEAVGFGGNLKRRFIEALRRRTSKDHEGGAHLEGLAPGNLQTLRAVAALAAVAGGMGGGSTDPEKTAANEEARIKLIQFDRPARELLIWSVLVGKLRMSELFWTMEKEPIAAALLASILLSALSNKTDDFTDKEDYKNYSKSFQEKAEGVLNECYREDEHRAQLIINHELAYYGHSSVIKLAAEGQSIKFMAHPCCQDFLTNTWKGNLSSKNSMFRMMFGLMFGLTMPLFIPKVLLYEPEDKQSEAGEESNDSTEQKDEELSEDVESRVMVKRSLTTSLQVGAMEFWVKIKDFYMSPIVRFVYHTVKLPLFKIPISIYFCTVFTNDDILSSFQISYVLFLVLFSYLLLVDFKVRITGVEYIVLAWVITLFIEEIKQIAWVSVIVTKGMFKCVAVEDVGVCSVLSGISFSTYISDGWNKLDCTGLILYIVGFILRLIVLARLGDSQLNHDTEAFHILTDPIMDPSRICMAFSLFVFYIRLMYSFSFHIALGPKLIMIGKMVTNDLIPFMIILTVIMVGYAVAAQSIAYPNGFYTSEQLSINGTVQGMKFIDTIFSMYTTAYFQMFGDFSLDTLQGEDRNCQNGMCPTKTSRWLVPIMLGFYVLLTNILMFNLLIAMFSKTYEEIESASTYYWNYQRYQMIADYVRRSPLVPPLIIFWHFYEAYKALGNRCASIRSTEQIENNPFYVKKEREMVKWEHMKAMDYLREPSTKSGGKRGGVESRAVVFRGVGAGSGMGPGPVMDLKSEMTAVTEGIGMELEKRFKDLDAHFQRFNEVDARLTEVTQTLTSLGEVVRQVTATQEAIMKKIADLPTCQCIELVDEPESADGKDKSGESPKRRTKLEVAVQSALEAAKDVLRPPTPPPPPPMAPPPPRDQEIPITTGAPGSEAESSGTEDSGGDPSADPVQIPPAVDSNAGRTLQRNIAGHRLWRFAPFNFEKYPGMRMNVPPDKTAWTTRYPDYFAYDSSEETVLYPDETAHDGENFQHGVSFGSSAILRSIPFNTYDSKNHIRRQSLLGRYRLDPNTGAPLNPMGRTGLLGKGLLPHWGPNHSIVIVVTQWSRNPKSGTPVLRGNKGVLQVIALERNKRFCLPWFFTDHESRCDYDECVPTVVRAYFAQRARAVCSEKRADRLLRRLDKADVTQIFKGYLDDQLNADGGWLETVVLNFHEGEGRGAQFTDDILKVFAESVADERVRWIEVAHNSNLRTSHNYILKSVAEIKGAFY

O=C(C1CCCCC1)N1CC(=O)N2CCc3ccc(-n4cc(C5(O)CCCCC5)nn4)cc3C2C1 (stereo not drawn) [Compound 5d]
hit classification (motility and phenotype scores) ([1]; 50 μM, hit if motility < -0.35 and phenotype < -0.15): inactive | activity against adult worms ([2]; data not shown): inactive | Bmax, wild-type Sm.TRPMPZQ activation [3]: No activity | EC50 for wild-type Sm.TRPMPZQ activation ([3]; 0.001 to 100 μM): failed to activate; also recorded: No activity | Emax [4]: 94 ± 4.08% | activation of Sm.TRPMPZQ mutant form L1515A [5]: activated | block of PZQ activation of Sm.TRPMPZQ (antagonist mode) [6]: failed to impact subsequent responses to PZQ

O=C(C1CCCCC1)N1CC(=O)N2CCc3ccccc3C2C1 (stereo not drawn) [PZQ, Praziquantel, reference compound]
hit classification (motility and phenotype scores) ([1]; 6.25 μM): not classified as a hit | parasite metabolic activity compared to the DMSO control group (XTT) ([7]; 100 μM): significantly decreased | viability at 100 µM ([7]; Schistosoma mansoni, mean ± SD, read-out: juvenile worm viability (XTT, % residual viability)): 71.5% | EC50 ([2]; Schistosoma mansoni, 0 h, male adult worms, 0 h (immediately after addition), single experiment or geometric mean, read-out: Male worm motility inhibition (EC50)): 280 nM | EC50 ([2]; Schistosoma mansoni, 0 h, male, 0 h, individual experiments, read-out: Male worm motility inhibition (EC50), values of independent experiments): 300 nM | EC50 ([2]; Schistosoma mansoni, 24 h, male adult worms, 24 h, single experiment or geometric mean, read-out: Male worm motility inhibition (EC50)): 250 nM | EC50 ([2]; Schistosoma mansoni, 24 h, male, 24 h, individual experiments, read-out: Male worm motility inhibition (EC50), values of independent experiments): 220 nM | EC50 ([2]; Schistosoma mansoni, 48 h, male adult worms, 48 h, single experiment or geometric mean, read-out: Male worm motility inhibition (EC50)): 250 nM | EC50 ([2]; Schistosoma mansoni, 48 h, male, 48 h, individual experiments, read-out: Male worm motility inhibition (EC50), values of independent experiments): 270 nM | EC50 ([2]; Schistosoma mansoni, 72 h, male adult worms, 72 h, single experiment or geometric mean, read-out: Male worm motility inhibition (EC50)): 160 nM | EC50 ([2]; Schistosoma mansoni, 72 h, male, 72 h, individual experiments, read-out: Male worm motility inhibition (EC50), values of independent experiments): 160 nM | EC50 ([2]; Schistosoma mansoni, male, 0-72 h, read-out: EC50 against male adult worms (motility), span over incubation times): ~200 nM | EC50 ([2]; male, 48 h, individual experiments, listed as PZQ (1), read-out: Male worm motility inhibition (EC50), values of independent experiments): 240 nM | EC50 ([2]; male, 72 h, individual experiments, listed as PZQ (1), read-out: Male worm motility inhibition (EC50), values of independent experiments): 170 nM | activation of Fh.TRPMPZQ [8]: does not activate | activation of Sm.TRPMMCLZ [9]: does not activate | in vitro potency against adult worms ([10]; S. mansoni adults): 160 to 750 nM | in vitro potency against schistosomula ([10]; S. mansoni schistosomula): 1300 to 4800 nM | number of juvenile worms with viability score 0 ([11]; 10 μM, Table S1): 56 | number of juvenile worms with viability score 1 ([11]; 10 μM, Table S1): 12 | number of juvenile worms with viability score 2 ([11]; 10 μM, Table S1): 27 | number of juvenile worms with viability score 3 ([11]; 10 μM, Table S1): 14 | viability at 10 µM ([11]; Schistosoma mansoni, read-out: Relative frequency of viability score 3): 12.8%
